Measurements reported in patent publication US20130273183A1, “2-Pyrimidine Thioesters and Thiocarbonates as Skin Brightening Agents” (EASTMAN CHEMICAL COMPANY, priority 2012, published 2013).
Marks after values point to notes of the source that are not given here.

Key:
[1] = tested on: B16-F10 murine melanoma cells; experiment: Melanogenesis inhibition assay (melanin content, absorbance at 450 nm); format: cell-based; conditions: Mus musculus, 72 h, read-out: Melanogenesis % of control; for activity at 500 µM: 0.5 mmol/L (footnote *); for activity at 100 µM: 0.1 mmol/L; for activity at 1000 µM: 1.0 mmol/L
Method: Melanocytes (B16-F10/CRL-6475 murine melanoma cells, purchased from ATCC) were cultured in Dulbecco's Modified Eagle's Medium (DMEM)/Ham's F-12 50:50 mix with L-glutamine w/out phenol red/10% (v/v) newborn calf serum/1% (v/v) 100× Invitrogen Cat #15240-062 Antibiotic-Antimycotic at 37° C. (i.e., the growth medium) in a humidified atmosphere with 5% CO2. The cells were seeded into 12.5 cm^2 tissue culture flasks at a concentration of 1.0×10^5 cells/mL. A 3-mL cell suspension (seed medium) was added to each flask. The test compounds were dissolved in dimethyl sulfoxide (DMSO) at a concentration of 0.5 M. This 0.5 M stock was used to prepare various concentrations of the test compounds in growth medium, with the final concentration of DMSO at 0.2% by weight. Growth medium with diluted test compound is referred to as the dose medium. The controls were treated in the same manner, but without the test compound. After 24 hrs of incubation, the seed medium was replaced with 3 mL of dose medium (growth medium with various concentrations of test samples or control compounds). The dose medium was […] day, and the incubation continued for an additional 2 days. The dose medium was removed. The cells were dissolved in 1 mL of 1 N NaOH during incubation at 80° C. for 10 min. Samples of extracted melanin were transferred to a 96-well plate, and the absorbance was read at 450 nm. Each experiment was repeated three times. Kojic acid, arbutin, and hydroquinone were used as positive controls.

[2] = tested on: B16-F10 murine melanoma cells; experiment: Cell viability assay (MTT); format: cell-based
Method: After incubating the melanocytes with test samples or control compounds as mentioned above, 330 μL of a MTT solution (5 mg/mL MTT in standard medium with no added serum or antibiotic) was added. […] After orbital shaking for 10 min at room temperature, 1 mL of the contents of each flask was transferred to microfuge tubes and centrifuged for 10 min. 200 μL of each tube were then transferred to a 96-well plate, and the relative extent of MTT reduction was determined based on the absorbance at 590 nm. […] Kojic acid, arbutin, and hydroquinone were used as positive controls.

[3] = 0.5 mmol/L (footnote *), MTT, B16-F10 cells

SMILES | activity at 500 µM [1] | activity at 100 µM [1] | activity at 1000 µM [1] | Cell Viability % of control ([2]; 0.1 mmol/L, MTT, B16-F10 cells) | Cell Viability % of control ([2]; 1.0 mmol/L, MTT, B16-F10 cells) | other results
Sc1ncccn1 [2-Mercapto-Pyrimidine, 2-Mercaptopyrimidine, reference compound] | 35% | – | – | – | – | activity at 250 µM ([1]; 0.25 mmol/L): 42%; Cell Viability % of control ([2]; 0.25 mmol/L, MTT, B16-F10 cells, no replication): 81** % of control; Cell Viability % of control [2, 3]: 68* % of control
OC[C@H]1O[C@@H](Oc2ccc(O)cc2)[C@H](O)[C@@H](O)[C@@H]1O [Arbutin, arbutin, reference compound] | – | 92% | 83% | 125 % of control | 134 % of control | –
COC(=O)CSc1ncccn1 [Comparative Example 1, Methyl 2-(pyrimidin-2′-ylthio)acetate, reference compound] | – | 115% | 98% | 114 % of control | 117 % of control | –
COC(=O)CCSc1ncccn1 [Comparative Example 2, Methyl 3-(Pyrimidin-2′-ylthio)propionate, reference compound] | 96% | 98% | – | 88 % of control | – | Cell Viability % of control [2, 3]: 84* % of control
CC(=O)Sc1ncccn1 [Example 1, Pyrimidin-2-yl Thiolacetate] | – | 71% | 33% | 100 % of control | 6.6 % of control | –
CCC(=O)Sc1ncccn1 [Example 2, Pyrimidin-2-yl Thiolpropionate] | – | 67% | 36% | 113 % of control | 13.6 % of control | –
CCOC(=O)Sc1ncccn1 [Example 3, O-Ethyl-5-pyrimidin-2-yl Monothiolcarbonate] | – | 81% | 36% | 87 % of control | 32 % of control | –
CC(C)(C)C(=O)Sc1ncccn1 [Example 5, Pyrimidin-2′-yl 2,2-Dimethylpropanethioate] | – | 66% | 28% | 91 % of control | 7 % of control | –
O=C(Sc1ncccn1)c1ccccc1 [Example 6, Pyrimidin-2-yl Thiolbenzoate] | – | 69% | 39% | 91 % of control | 69 % of control | –
O=C(Sc1ncccn1)c1cccnc1 [Example 7, S-Pyrimidin-2′-yl Pyridine-3-carbothioate] | – | 72% | 27% | 101 % of control | 3.5 % of control | –
O=C(Sc1ncccn1)c1ccncc1 [Example 8, S-Pyrimidin-2′-yl Pyridine-4-carbothioate] | 38% | 70% | – | 92 % of control | – | Cell Viability % of control [2, 3]: 36* % of control
Oc1ccc(O)cc1 [Hydroquinone, hydroquinone, reference compound] | 33% | – | – | – | – | Cell Viability % of control ([2]; mouse, 0.5 mmol/L): 3* % of control
O=c1cc(CO)occ1O [Kojic acid, reference compound] | – | 94% | 86% | – | – | Cell Viability % of control ([2]; mouse, 0.1 mmol/L): 116 % of control; Cell Viability % of control ([2]; mouse, 1 mmol/L): 92 % of control
